Bases are written 5' to 3'; sugars and linkages follow in the same order, as letters with counts (s phosphorothioate, o phosphodiester; PS: all linkages phosphorothioate). The collection does not say whether C is 5-methylated. l = locked nucleic acid (LNA); d = 2'-deoxy (DNA)
Biological target: Tau
Assay: rat primary cortical neurons, FLIPR, 25 uM ASO

Sequence | calcium oscillation score
GGTCAACTGGTTTGTAGACT (sugars l3 d14 l3, PS) | 6.9 % of control
CCATTCCCTCCAGAACCATC (sugars l3 d14 l3, PS) | 36.3 % of control
TTGGGTGGAGTACGGACCAC (sugars l3 d14 l3, PS) | 0 % of control
CCTAAAGTCCCAGGTC (sugars l3 d10 l3, PS) | 62.9 % of control
TGAAGTCCCGAGCCAAAGCC (sugars l3 d14 l3, PS) | 0 % of control
TCGTCAGCTAGCGTGG (sugars l3 d10 l3, PS) | 55.2 % of control
CTCTTCAAATCATTCAA (sugars l4 d9 l4, PS) | 68.4 % of control
AGCAATAGCAAACAG (sugars l3 d9 l3, PS) | 52.8 % of control
CCAATTAACCGAACTG (sugars l3 d10 l3, PS) | 55.2 % of control
AAAAAGTCCATTCCCTC (sugars l3 d10 l4, PS) | 64 % of control
GGCGGTGACTGCGA (sugars l3 d8 l3, PS) | 41.7 % of control
ATCAGCCTTCATCACACT (sugars l4 d12 l2, PS) | 87.7 % of control
CTCTTCAAATCATTCAAT (sugars l4 d10 l4, PS) | 69.7 % of control
CTCTTAGCATCCACTTA (sugars l3 d12 l2, PS) | 44.5 % of control
CTGGTTTGTAGACTATTTGC (sugars l3 d14 l3, PS) | 0 % of control
TATTGAACTCACCCACT (sugars l2 d11 l4, PS) | 65.7 % of control
TTCCTTTCAATGACCAA (sugars l3 d10 l4, PS) | 56.6 % of control
CCAGACCATCAATTTCC (sugars l2 d13 l2, PS) | 83.3 % of control
CCCACATAAACTCCTT (sugars l3 d10 l3, PS) | 53.4 % of control
TATTTCCAAATTCACTTTTA (sugars lldldldddddddddldlll, PS) | 129 % of control
AGAAATAAGTGGTAGT (sugars l3 d11 l2, PS) | 85.7 % of control
ATATCATATCCTAAGC (sugars l4 d9 l3, PS) | 50.9 % of control

Sequence | calcium oscillation score
ATGTCGATGCTGCCGG (sugars l3 d10 l3, PS) | 0 % of control
GTCCACAAACCAACTCA (sugars l3 d11 l3, PS) | 91.3 % of control
CGTGGTCTGTCTTGGC (sugars l3 d10 l3, PS) | 19 % of control
TTAACTCATCAACACCTTT (sugars l3 d12 l4, PS) | 84 % of control
GACTGCTCAGCTAAGACCCT (sugars l3 d14 l3, PS) | 31.2 % of control
TTGAAGTCCCGAGC (sugars l3 d8 l3, PS) | 0 % of control
TTATTTATTCTTTTTATTAT (sugars l4 d12 l4, PS) | 66.3 % of control
ACTTTATTTCCAAATTCACTTTTAC (sugars l3 d18 l4, PS) | 35.4 % of control
GCCTAATGAGCCACAC (sugars l3 d10 l3, PS) | 70.6 % of control
TTCCAGTCCCGTCTTT (sugars l3 d10 l3, PS) | 73.1 % of control
TCCCCATTTATCCTTCAT (sugars l2 d13 l3, PS) | 77.3 % of control
CCCATTTACAATTCAG (sugars l3 d10 l3, PS) | 52.6 % of control
TTTGAAGTCCCGAGCCAAAG (sugars l3 d14 l3, PS) | 0 % of control
TTATTTACACTGTCCTT (sugars l3 d10 l4, PS) | 54.1 % of control
CGGAAGGTCAGCTTGT (sugars l3 d10 l3, PS) | 32.5 % of control
AATATTACACCATCCA (sugars l4 d8 l4, PS) | 101 % of control
CCCTAAAGTCCCAG (sugars l3 d8 l3, PS) | 51.4 % of control
AACATCACCAGCCTTC (sugars l3 d9 l4, PS) | 50.7 % of control
GTCTACCATGTCGATGCTGC (sugars l3 d14 l3, PS) | 23.2 % of control
CAGAGGAACGTGTGGA (sugars l3 d10 l3, PS) | 29.6 % of control
CTTGAAGTCAAGCTTCTCAG (sugars l3 d14 l3, PS) | 33.2 % of control
TCTCTAATTGTCCAATA (sugars l4 d9 l4, PS) | 69 % of control

Sequence | calcium oscillation score
TCCACAAACCAACTCAA (sugars l3 d10 l4, PS) | 99.5 % of control
TTATTTCCAAATTCACTTTT (sugars lldllddddddddddlldll, PS) | 121 % of control
ATTTCCAAATTCACTTTTAC (sugars lllldddddddddldlddll, PS) | 137 % of control
TAATCCTGTGCTTCAG (sugars l3 d10 l3, PS) | 75.8 % of control
CCTACTTTATTCCCTTA (sugars l2 d12 l3, PS) | 95.9 % of control
CTCCAATCTTACAGAT (sugars l4 d9 l3, PS) | 102 % of control
CTCAAAAATCAACGCCT (sugars l3 d10 l4, PS) | 57 % of control
CTCCTGGTTTATGATGGATG (sugars l3 d14 l3, PS) | 35 % of control
ATTTCCAAATTCACTTTTAC (sugars lldlldddddddddllddll, PS) | 120 % of control
TATTTCCAAATTCACTTTTA (sugars llldldddddddddllddll, PS) | 135 % of control
TTTCAACTCTTAGCATC (sugars l4 d9 l4, PS) | 70.8 % of control
TATTTCCAAATTCACTTTTA (sugars l3 d14 l3, PS) | ≥ 200 % of control
AACTTCTAATTTAGTC (sugars l4 d8 l4, PS) | 81.9 % of control
GGTGCTCTGGTCAA (sugars l3 d8 l3, PS) | 102 % of control
CAAAACATTCTCACCAAACC (sugars l4 d14 l2, PS) | 84.8 % of control
GCAAACCACTCTTATT (sugars l4 d10 l2, PS) | 95.4 % of control
TCCCATCACTAGCACTA (sugars l2 d13 l2, PS) | 32.8 % of control
ATATTCCACACATAAACAA (sugars l4 d11 l4, PS) | 62.8 % of control
GCATGATTGTGGGC (sugars l3 d8 l3, PS) | 85.7 % of control
TTTACAAAGTCCACTTT (sugars l4 d9 l4, PS) | 53 % of control
GTGATGCAGGAGTT (sugars l3 d8 l3, PS) | 64.8 % of control
CTTCTCCAGTATTTCTTC (sugars l2 d13 l3, PS) | 69.4 % of control

Sequence | calcium oscillation score
CGAACTGCGAGGAGCAGCTG (sugars l3 d14 l3, PS) | 0 % of control
CCCACCCATCAATTTGGAAA (sugars l3 d14 l3, PS) | 11.7 % of control
CACCCTTACACATAGC (sugars l3 d11 l2, PS) | 60.6 % of control
TTTAGTTTTCCCACCCAA (sugars l2 d13 l3, PS) | 69.4 % of control
AACCAACTTTCATCTACT (sugars l4 d11 l3, PS) | 73.5 % of control
TTGGAGCCTACATAGA (sugars l3 d10 l3, PS) | 0 % of control
TAGCCCTAAAGTCCCAGGTC (sugars l3 d14 l3, PS) | 54 % of control
AATAACATTAACCCTT (sugars l4 d8 l4, PS) | 72 % of control
TGATTGTGGGCTTA (sugars l3 d8 l3, PS) | 28.7 % of control
TTTATTTCCAAATTCACTTT (sugars l1 d17 l2, PS) | 163 % of control
CCCCTCCATTAAGAAC (sugars l3 d11 l2, PS) | 68.1 % of control
GTCTCAAATCAAACTA (sugars l4 d8 l4, PS) | 60.6 % of control
CTTGGCTTTGGCGTTC (sugars l3 d10 l3, PS) | 2.61 % of control
TCTCAGCTCTTCCATAAGCA (sugars l3 d14 l3, PS) | 82.6 % of control
CAAACTTTTACTCTGAC (sugars l4 d9 l4, PS) | 63.8 % of control
ATTTCCAAATTCACTTTTAC (sugars l2 d1 l2 d11 l4, PS) | 147 % of control
CAGACACCACTGGCGACTTG (sugars l3 d14 l3, PS) | 46.5 % of control
AAGAGTCACTGCACTGCATT (sugars l3 d14 l3, PS) | 30.9 % of control
CCACCCTAACACAATCA (sugars l2 d12 l3, PS) | 94 % of control
ACTGATCATAATCCTAC (sugars l4 d9 l4, PS) | 68.2 % of control
CCATCCTATCTTCTAG (sugars l3 d10 l3, PS) | 44.3 % of control
CCTACTTTATTCCCTTAA (sugars l2 d12 l4, PS) | 86.8 % of control

Sequence | calcium oscillation score
ATGATTGTGGGCTTAG (sugars l3 d10 l3, PS) | 24.4 % of control
AATAAGAAAGGAACGC (sugars l3 d9 l4, PS) | 85.7 % of control
CTCTTATCTTTGTTTCTA (sugars l4 d12 l2, PS) | 51.1 % of control
TAACCAACTTTCATCTAC (sugars l4 d10 l4, PS) | 98.4 % of control
ATCCTAAGTCAACCACA (sugars l2 d11 l4, PS) | 69 % of control
TAAATACATCAATAGAAGGC (sugars l3 d14 l3, PS) | 50.4 % of control
GCCACCTCCTGGTTTATGAT (sugars l3 d14 l3, PS) | 31.6 % of control
TTGTGATGCAGGAG (sugars l3 d8 l3, PS) | 0 % of control
CTAATCCTGTGCTT (sugars l3 d8 l3, PS) | 26.1 % of control
CGCCTTTAGTGATTACAGGC (sugars l3 d14 l3, PS) | 20.2 % of control
GTCAACTGGTTTGT (sugars l3 d8 l3, PS) | 89.4 % of control
GTCTTTGCTTTTACTGACCA (sugars l3 d14 l3, PS) | 44.4 % of control
AATCCTTAATTTAACCACAT (sugars l4 d13 l3, PS) | 56.8 % of control
CTCTCTGCATATATAAT (sugars l4 d9 l4, PS) | 72.2 % of control
CTACCATGTCGATG (sugars l3 d8 l3, PS) | 6.9 % of control
TACCAATTATCTTTAAATTC (sugars l4 d12 l4, PS) | 64.4 % of control
AGCTGGGTGGTGTCTTTGGA (sugars l3 d14 l3, PS) | 0 % of control
ACGTTGCTAAGATCCA (sugars l3 d10 l3, PS) | 18.1 % of control
AACAGGAGAGCCATTTCCCA (sugars l3 d14 l3, PS) | 57.1 % of control
TTCTTGTGATGCAGGA (sugars l3 d10 l3, PS) | 61.3 % of control
TTAGACCACATTTCCAT (sugars l3 d11 l3, PS) | 96 % of control
